# Results taken from US9931316B2 (priority 2015, dated 2018).
# Where two headings read alike, the source gives them in different places.
# Experiments:
# [1] = system: Polio; format: cell-based, poliovirus; settings: Polio primary, SI50 = CC50/EC50
# [2] = system: Mycobacterium tuberculosis; settings: Hwang et al., J. Nat. Prod. 76: 1916-1922 (2013); cited from earlier work
# [3] = system: Ebola; format: cell-based, Ebola virus; settings: SI50 = CC50/EC50
# [4] = in vitro; settings: dog
# [5] = system: Flu A (H3N2) Wisconsin/67/2005; test: microbe, parasite or virus in culture; format: cell-based, Influenza A; settings: for Cntrl SI: Ribavirin control, Flu A (H3N2)
# [6] = system: Flu B Shanghai/361/02; test: Influenza B antiviral assay in MDCK cells (BioShield, NIH contract labs); format: cell-based; settings: for EC50: Influenza B virus, read-out: Cntrl EC50; for EC50 / Cntrl SI: Ribavirin control, Flu B
# From the text: Following the Project BioShield Act of 2004, Fungi Perfecti, LLC submitted over 200 hot water fruitbody and aqueous ethanolic extracts of the in vitro grown mycelia of mushroom species and strains within to the BioShield BioDefense Program administered by the U.S. Army Medical Research Institute of Infectious Diseases ([…]) and the National Institutes of Health (NIH). Submitted samples were screened for antiviral activity coordinated through the Southern Research Institute (SRI). From the more than 200 samples the inventor provided to BioShield, 2,392 antiviral assays were performed on behalf of the inventor; 1,042 of which were influenza tests.
# The protocols for determining antiviral activity are fully described by the National Institutes of Allergy and Infectious Diseases (NIAID) by Greenstone et al., NIAID resources for developing new therapies for severe viral infections, Antiviral Res., Volume 78, Issue 1, April 2008, Pages 51-59, hereby incorporated by reference in its entirety. The influenza bioassays were conducted according to Sidwell, R W and Smee, D F, In vitro and in vivo assay systems for study of influenza virus inhibitors, Antiviral Res., October 2000, 48(1):1-16., hereby incorporated by reference in its entirety.
# [7] = system: Flu A (H5N1) Vietnam/1203/2004H; test: microbe, parasite or virus in culture; format: cell-based, Influenza A
# [8] = system: Human papillomavirus 11; format: cell-based, human papillomavirus (HPV)
# [9] = system: Norovirus; format: cell-based, norovirus (Norwalk); parameters: unit not given beside the values
# [10] = oral ingestion; cited from earlier work
# [11] = system: HSV-1; test: microbe, parasite or virus in culture; format: cell-based, Herpes Simplex; settings: Human alphaherpesvirus 1, HFF, read-out: Cntrl EC50
# [12] = system: laccase activity of Trametes sp. 1-62; settings: Terron et al. 2004; cited from earlier work
# [13] = within the human body; cited from earlier work
smiles,measurement,setting,value
O=c1cc(-c2ccccc2)oc2cc(O)cc(O)c12 [Chrysin],SI50,[1],Polio primary: SI50 > 15 (Control pirodavir SI50 > 22)
same,SI50,[1]; listed as chrysin,> 15
CCOC(=O)c1c(-c2ccccc2)c2ccc(Cl)cc2oc1=O [Ethyl 7-chloro-2-oxo-4-phenyl-2H-chromen-3-carboxylate],activity against Mycobacterium tuberculosis,[2],active
CC(=O)/C=C(O)\C=C\c1ccc(O)c(O)c1 [Hispolon],SI50,[3],> 5.3
same,activity against Mycobacterium tuberculosis,[2],active
NC(=O)c1ncn([C@@H]2O[C@H](CO)[C@@H](O)[C@H]2O)n1 [Ribavirin],IC50,[4],> 320 µg/mL
same,EC50,"[5]; Influenza A virus, H3N2, MDCK, read-out: Cntrl EC50",2 µg/mL
same,Cntrl SI,[5]; Neutral Red,>160
same,Cntrl SI,[5]; Visual,>170
same,EC50,"[6]; MDCK, Neutral Red",7.1 µg/mL
same,EC50,"[6]; MDCK, Visual-CONF",1.7 µg/mL
same,EC50,"[6]; MDCK, Visual",1.7 µg/mL
same,EC90,"[6]; MDCK, read-out: Cntrl EC90",37.7 µg/mL
same,Cntrl SI,[6]; Neutral Red,>45
same,Cntrl SI,[6]; Visual,>190
same,Cntrl SI,[6]; Visual-CONF,>190
same,EC50,"[7]; Influenza A virus, H5N1, MDCK, read-out: Cntrl EC50, Ribavirin control, Neutral Red",12 µg/mL
same,Cntrl SI,"[7]; Ribavirin control, Neutral Red",>27
C[C@@H]1O[C@@H](OC[C@H]2O[C@@H](Oc3c(-c4ccc(O)c(O)c4)oc4cc(O)cc(O)c4c3=O)[C@H](O)[C@@H](O)[C@@H]2O)[C@H](O)[C@H](O)[C@H]1O.O [Rutin hydrate],SI90,[8],"Human papillomavirus 11 primary: SI50 > 109 (Control cidofovir SI50 = 12), SI90 = 5 (Control cidofovir SI90 = 1)"
COc1cc(C(=O)O)ccc1O [Vanillic acid],SI50,[9],1
same,SI90,[9],1
same,time remaining in the blood stream post-digestion,[10],more than 11 hours
Nc1nc2c(ncn2COCCO)c(=O)[nH]1 [acyclovir],EC50,[11],0.3 µg/mL
NC(=O)c1nc(F)c[nH]c1=O [favipiravir],SI50,[3],> 10
COc1ccccc1O [guaiacol],increase in laccase activity,[12],73 fold
O=C(O)/C=C/c1ccc(O)cc1 [p-coumaric acid],increase in laccase activity,[12],273 fold
COc1cc(C=O)ccc1O [vanillin],share of vanillin metabolized into vanillic acid,[13],up to 95%
